# Test results as given in patent US6087375A, “Methods of treating or preventing thromboses” (priority 1999, dated 2000).
# Assays:
# thrombin = assay: Sandwich ELISA for thrombin binding of conjugated proteins (anti-thrombin detection)
# Procedure: (§1) The plates were incubated at room temperature for 30 minutes and washed as above.
# as §1
# Next, 100 μl/well of ABC-HRP (Vector, catalog no. PK4000) was added, each component diluted 1:500 in PBS, pH 7.4, with 0.1% TWEEN 20 and incubated 30 minutes at room temperature prior to use.
# [1] = tested on: human platelets (thrombin-induced aggregation); assay: Thrombin-induced platelet aggregation assay; assay type: cell-based
# Procedure: The conjugate was prepared according to the following protocol. A 15 μM solution of RSA in PBS was reacted with 200 μM argatroban-C6 NHS ester for 1 hour at room temperature. Sham samples consist of the RSA incubated for the same length of time at RT in 2% DMSO in PBS. Each of the samples was then concentrated to a final volume of 1.5 mL using Amicon Centricon 30 filtration/concentration devices. The concentrated samples were then desalted on Pierce's 5 ML Kwiksep excellulose plastic desalting columns. The excluded volumes containing RSA or argatroban-C6-RSA were then subjected to BCA microprotein estimation and lyophilization. In addition, these samples were analyzed by LC/MS, sandwich ELISA assays (described above) to measure thrombin binding and immunoblotting.
# Platelets were purified from freshly drawn human blood diluted with the anticoagulant buffer ACD (9 mls of blood to 1 mL of buffer). The blood was centrifuged for 25 min at 200×g. The platelet-rich plasma (PRP) was recovered with a plastic pipette. The PRP was centrifuged for 15 min at 3,000×g in v-shaped plastic tubes. The supernatant, called platelet-poor plasma (PPP), was then removed and saved, and the platelets were resuspended in buffer A1 (35 mM citric acid, 103 mM NaCl, 5 mM each of glucose and KCl, 2 mM CaCl2, 1 mM […], 3.5 mg/mL BSA, 0.1 μM PGE1 and 0.3 U/mL of apyrase at pH 6.5). The resuspended platelets were washed 2 times with buffer A1. After the last wash, the platelets were resuspended in buffer B1 (137 mM NaCl, 2.6 mM KCL 12 mM NaHCO3, 0.3 mM NaH2 PO4, 3 mM CaCl2, 1 mM MgCl2, 5 mM glucose, 3.5 mg/mL BSA and […] apyrase at pH 7.4) at a density of 3×10^5 /μL. The platelets were maintained at room temperature until ready for use.
# Various parameters relevant to platelet aggregation were obtained on a four channel aggregometer manufactured by AFFI BIO. In brief, the reaction chambers are warmed to 37° C. and are agitated at a rate of 1,200 rpm. Light is passed through the reaction chambers, with 300 μL of buffer B1 used to set the 100% transmittance level for each chamber. From a series of standardization experiments, it was determined that 0.5 U/mL of human thrombin (Sigma) is an optimal aggregating concentration of thrombin and is used to set. the 0% transmittance for the instrument. Standard conditions for the assay involve incubating 250 μL of the platelet suspension with or without 50 μL of inhibitor diluted in buffer in the reaction chambers for 60 seconds at 37° C. The value of transmittance is now set as 0%. After this measurement, thrombin is added to the reaction chambers (20 μl) and transmittance is measured for the next 6 minutes. Samples were performed in triplicate.
# [2] = biological target: thrombin from human plasma (Homo sapiens, UniProt P00734); assay: Km-based fluorogenic assay for inhibition of thrombin (Example 7); assay type: biochemical; set-up: from tissue; host or cells: human plasma; details: FIG. 9, ambient temperature, pH 7.2
# Procedure: Thrombin from human plasma was obtained from Enzyme System Products, Dublin, Calif., in glycerol:water 1:1, 11.4 mg/ml, 3800 U/mg, MW 36,700, and stored undiluted at -20° C. It was freshly diluted the day of use.
# To dilute for the assay, 0.67 μl (25 Units) of thrombin was pipetted into 5 ml of 0.1 mg/ml BSA (from Pierce, Catalog No. 23209, BSA fraction V, a 2 mg/ml stock in saline with sodium azide), in cold PBS (GIBCO, Catalog No. 14190-136, without calcium chloride and magnesium chloride, pH 7.2) and briefly vortexed, yielding a stock of 5 mU thrombin/μl.
# The substrate was N-tBOC-β-Benzyl-Asp-Pro-Arg-7-Amido4-Methylcoumarin HCl and was obtained from Sigma, Catalog No. B4028, Lot 122H0070, F.W. 770.3. Five mg was dissolved in […] DMSO for a 4 mM stock. The stock was stored in 200 μl aliquots at -20° C. in the dark.
# An alternative substrate was N-tBOC-Val-Pro-Arg-7-Amido4-Methylcoumarin HCl and was obtained from Sigma, Catalog No. B-9385, Lot 53H0805, F.W. of free base 627.7. Five mg was dissolved in 1.863 ml DMSO for a 4 mM stock. The stock was stored in 200 μl aliquots at -20° C. in the dark.
# The fluorescent standard was 7-Amido4-Methylcoumarin and was obtained from Aldrich, Catalog No. 25,737-0, MW 175.19. […]
# Initial readings were taken to ensure exclusion of rogue wells with abnormally high backgrounds (λ excitation at 360 nm, bandwidth […], λ emission, 460 nm, bandwidth 40 nm). Then, 25 μl of a 10×stock of the putative inhibitor were added per well, mixed for 5 seconds and read kinetically for 10 minutes at ambient temperature to assess background interference and/or any increase in hydrolysis of substrate due to inhibitor.
# The thrombin assay was then initiated by adding 25 μl of thrombin/well with a multichannel pipettor and mixed for 5 seconds. The appearence of the fluorescent product (free 7-amido-4-methylcoumarin released from the peptide by thrombin) was followed simultaneously in 48 wells (one reading per minute for 30 minutes, λ excitation at 360 nm, bandwidth 40 nm, λ emission, 460 nm, bandwidth 40 nm). […]
substance,measurement,setting,value
RSA-argatroban-C6 conjugate: rabbit serum albumin covalently bound by argatroban-C6 NHS ester molecules,absolute ELISA signal,thrombin; RSA conjugate versus HSA conjugate,the absolute signal is lower than that obtained with HSA
same,concentration at which a significant signal above background was detected,"thrombin; RSA conjugate, FIG. 3",approximately 30 ng/ml
same,IC50 (estimated concentration which inhibits 50% of the aggregation),"[1]; 0.5 U/mL human thrombin, 37° C., conjugate: average of 10 argatrobans/RSA used",4.5 to 7.5 µM
same,delay in thrombin-induced platelet aggregation,"[1]; FIG. 11, versus sham-treated RSA",clearly delayed platelet aggregation
same,IC50 (estimated),[2],~0.025 µM
